# According to patent US10336792B2, “Antimicrobial peptide dendrimers” (priority 2014, dated 2019):
# Positions of bridges follow the written chain, without caps; N, C: chain ends. Residues, ends and D or L forms follow the SMILES beside them. Groups on a side chain read outwards from the residue. Chains are numbered I, II in the order given. *: point of attachment. Palmitoyl = CCCCCCCCCCCCCCCC(=O)*
# Experiments:
# Assay type in all cases: cell-based
# [1] = system: Escherichia coli (strain DH5α); conditions: DH5α
# Protocol: (§1) Antimicrobial activity was assayed against Bacillus subtilis (strain BR151), Escherichia coli (strain DH5α) and Pseudomonas aeruginosa (strain PA01). Microdilution broth method was used to determine the minimal inhibitory concentration (MIC). A colony of bacteria was grown in LB-medium overnight at 37° C. The concentration was quantified by measuring absorbance at 600 nm and diluted to OD600=0.1 (1×10^8 CFU/mL). The samples were prepared as stock solutions of 1 mg mL^−1 in H2O and diluted serially by ⅔ in nutrient LB in a 96-well microtiterplate (Cornstar, polypropylene, untreated). The sample solutions (50 μL) were mixed with the diluted bacterial suspension with an OD600 nm of 0.001 (50 μL). […] The plates were incubated at 37° C. until satisfactory growth (18-24 h). For each test, two columns of the plate were kept for sterility control (SC, broth only) and growth control (GC, broth with bacterial inoculums, no antibiotics). 10 μL of a solution of MTT (0.1% in H2O) was added to each well. The minimal inhibitory concentration (MIC) was defined as the lowest concentration of the antimicrobial substance (peptide dendrimer) that inhibited visible growth of the tested bacteria (yellow) with the unaided eye. For microbiological study the linear peptide LysTyrLysLysAlaLeuLysLysLeuAlaLysLeuLeu (SEQ ID No. 1) was used as reference.
# (§2) The AMPD library was tested for their antimicrobial activity against B. subtilis BR151, a Gram-positive bacterium and E. coli DH5α, another Gram-negative bacterium, to cover a broader spectrum of different bacteria. […] Therefore no explicit SAR can be established, but clearly the hydrophobic amino acids Ala and Tyr seem to have a significant influence in reducing activity.
# [2] = system: Pseudomonas aeruginosa (strain PA01); assay: microbe, parasite or virus in culture; conditions: strain
# Protocol: as §1
# All peptides were tested for their activity against P. aeruginosa PAO1 in a broth dilution assay (Wiegand, I. et al., 2008, Nat. Protoc., 3, 163-75; Clinical and Laboratory Standards Institute document M7-A7 7th Edition) to determine the MIC (minimal inhibitory concentration) values. The stock solutions of the peptide dendrimers were diluted serially by ⅔ in nutrient LB in 96-well microtiter plates. Bacteria were grown in nutrient LB overnight at 37° C. After dilution the bacteria were added to the peptides and incubated overnight (18-24 h) at 37° C. […] The position of the amino acids between the branching units seems to be optimal if the hydrophobic amino acid is the first counting from C-terminus and the charged one is on the second position. Introducing Ala as additional hydrophobic amino acid reduces activity (MSt-120). […] Also assembling charged or hydrophobic sections between the branching units leads to loss of activity whereas altering L-amino acids to D-amino acids maintains activity leading to the hypothesis that the mechanism of action should not be receptor mediated.
# [3] = system: Bacillus subtilis (strain BR151); conditions: strain BR151
# Protocol: as §1, §2
SMILES,MIC E. coli DH5α [1] [µg/mL],MIC P. aeruginosa PAO1 [2] [µg/mL],MIC B. subtilis BR151 [3] [µg/mL]
"CCCCCCCCCCCCCCCC(=O)NCCCC[C@H](NC(=O)[C@H](CC(C)C)NC(=O)[C@H](CCCCN)NC(=O)[C@H](CCCCNC(=O)[C@H](CC(C)C)NC(=O)[C@H](CCCCN)NC(=O)[C@H](CCCCNC(=O)[C@H](CC(C)C)NC(=O)[C@H](CCCCN)NC(=O)[C@H](CCCCNC(=O)[C@H](CC(C)C)NC(=O)[C@@H](N)CCCCN)NC(=O)[C@H](CC(C)C)NC(=O)[C@@H](N)CCCCN)NC(=O)[C@H](CC(C)C)NC(=O)[C@H](CCCCN)NC(=O)[C@H](CCCCNC(=O)[C@H](CC(C)C)NC(=O)[C@@H](N)CCCCN)NC(=O)[C@H](CC(C)C)NC(=O)[C@@H](N)CCCCN)NC(=O)[C@H](CC(C)C)NC(=O)[C@H](CCCCN)NC(=O)[C@H](CCCCNC(=O)[C@H](CC(C)C)NC(=O)[C@H](CCCCN)NC(=O)[C@H](CCCCNC(=O)[C@H](CC(C)C)NC(=O)[C@@H](N)CCCCN)NC(=O)[C@H](CC(C)C)NC(=O)[C@@H](N)CCCCN)NC(=O)[C@H](CC(C)C)NC(=O)[C@H](CCCCN)NC(=O)[C@H](CCCCNC(=O)[C@H](CC(C)C)NC(=O)[C@@H](N)CCCCN)NC(=O)[C@H](CC(C)C)NC(=O)[C@@H](N)CCCCN)C(N)=O [MSt-301, (KL)8(KKL)4(KKL)2(KKLKC16)] (I: H-KLK([Leu-Lys])KLKKLKKLK(Palmitoyl)-NH2 / II: H-KLK([Leu-Lys])KLKKL / III: H-KLK([Leu-Lys])KL / IV: H-KLK([Leu-Lys])KL; amide I:6-IV:C, I:9-II:C, II:6-III:C)",8,11,–
"CCCCCCCCCCCCCCCC(=O)NCCCC[C@H](NC(=O)[C@H](CC(C)C)NC(=O)[C@H](CCCCN)NC(=O)[C@H](CCCCNC(=O)[C@H](CC(C)C)NC(=O)[C@H](CCCCN)NC(=O)[C@H](CCCCNC(=O)[C@H](CC(C)C)NC(=O)[C@@H](N)CCCCN)NC(=O)[C@H](CC(C)C)NC(=O)[C@@H](N)CCCCN)NC(=O)[C@H](CC(C)C)NC(=O)[C@H](CCCCN)NC(=O)[C@H](CCCCNC(=O)[C@H](CC(C)C)NC(=O)[C@@H](N)CCCCN)NC(=O)[C@H](CC(C)C)NC(=O)[C@@H](N)CCCCN)C(N)=O [MSt-302, (KL)4(KKL)2(KKLKC16)] (I: H-KLK([Leu-Lys])KLKKLK(Palmitoyl)-NH2 / II: H-KLK([Leu-Lys])KL; amide I:6-II:C)",12,–,–
"CC(C)C[C@H](NC(=O)[C@H](CCCCN)NC(=O)[C@H](CCCCN)NC(=O)[C@H](CCCCNC(=O)[C@H](CC(C)C)NC(=O)[C@H](CCCCN)NC(=O)[C@H](CC(C)C)NC(=O)[C@H](CCCCNC(=O)[C@H](CC(C)C)NC(=O)[C@H](CCCCN)NC(=O)[C@H](CCCCNC(=O)[C@H](CC(C)C)NC(=O)[C@@H](N)CCCCN)NC(=O)[C@H](CC(C)C)NC(=O)[C@@H](N)CCCCN)NC(=O)[C@H](CC(C)C)NC(=O)[C@H](CCCCN)NC(=O)[C@H](CCCCNC(=O)[C@H](CC(C)C)NC(=O)[C@@H](N)CCCCN)NC(=O)[C@H](CC(C)C)NC(=O)[C@@H](N)CCCCN)NC(=O)[C@H](CC(C)C)NC(=O)[C@H](CCCCN)NC(=O)[C@H](CC(C)C)NC(=O)[C@H](CCCCNC(=O)[C@H](CC(C)C)NC(=O)[C@H](CCCCN)NC(=O)[C@H](CCCCNC(=O)[C@H](CC(C)C)NC(=O)[C@@H](N)CCCCN)NC(=O)[C@H](CC(C)C)NC(=O)[C@@H](N)CCCCN)NC(=O)[C@H](CC(C)C)NC(=O)[C@H](CCCCN)NC(=O)[C@H](CCCCNC(=O)[C@H](CC(C)C)NC(=O)[C@@H](N)CCCCN)NC(=O)[C@H](CC(C)C)NC(=O)[C@@H](N)CCCCN)C(N)=O [YGO-008, (KL)8(KKL)4(KLKL)2(KKKL)] (I: H-KLK([Leu-Lys])KLKLKLKKKL-NH2 / II: H-KLK([Leu-Lys])KLKLKL / III: H-KLK([Leu-Lys])KL / IV: H-KLK([Leu-Lys])KL; amide I:6-IV:C, I:10-II:C, II:6-III:C)",–,2,–
"CC(C)C[C@H](NC(=O)[C@H](CCCCN)NC(=O)[C@H](CCCCNC(=O)[C@H](CC(C)C)NC(=O)[C@@H](N)CCCCN)NC(=O)[C@H](CC(C)C)NC(=O)[C@@H](N)CCCCN)C(=O)N[C@@H](CSSC[C@H](NC(=O)[C@H](CC(C)C)NC(=O)[C@H](CCCCN)NC(=O)[C@H](CCCCNC(=O)[C@H](CC(C)C)NC(=O)[C@@H](N)CCCCN)NC(=O)[C@H](CC(C)C)NC(=O)[C@@H](N)CCCCN)C(N)=O)C(N)=O [CCS-5 dimer, ((KL)2KKLC)2] (I: H-KLK([Leu-Lys])KLC-NH2 / II: H-KLK([Leu-Lys])KLC-NH2; disulfide I:6-II:6)",–,15,–
"CC(C)C[C@H](NC(=O)[C@H](CC(C)C)NC(=O)[C@H](CCCCNC(=O)[C@H](CCCCN)NC(=O)[C@H](CCCCN)NC(=O)[C@H](CCCCNC(=O)[C@H](CC(C)C)NC(=O)[C@H](CC(C)C)NC(=O)[C@H](CCCCNC(=O)[C@H](CCCCN)NC(=O)[C@@H](N)CCCCN)NC(=O)[C@H](CCCCN)NC(=O)[C@@H](N)CCCCN)NC(=O)[C@H](CC(C)C)NC(=O)[C@H](CC(C)C)NC(=O)[C@H](CCCCNC(=O)[C@H](CCCCN)NC(=O)[C@@H](N)CCCCN)NC(=O)[C@H](CCCCN)NC(=O)[C@@H](N)CCCCN)NC(=O)[C@H](CCCCN)NC(=O)[C@H](CCCCN)NC(=O)[C@H](CCCCNC(=O)[C@H](CC(C)C)NC(=O)[C@H](CC(C)C)NC(=O)[C@H](CCCCNC(=O)[C@H](CCCCN)NC(=O)[C@@H](N)CCCCN)NC(=O)[C@H](CCCCN)NC(=O)[C@@H](N)CCCCN)NC(=O)[C@H](CC(C)C)NC(=O)[C@H](CC(C)C)NC(=O)[C@H](CCCCNC(=O)[C@H](CCCCN)NC(=O)[C@@H](N)CCCCN)NC(=O)[C@H](CCCCN)NC(=O)[C@@H](N)CCCCN)C(N)=O [MSt-179, (KK)8(KLL)4(KKK)2(KLL)] (I: H-KKK([Lys-Lys])LLKKKKLL-NH2 / II: H-KKK([Lys-Lys])LLKKK / III: H-KKK([Lys-Lys])LL / IV: H-KKK([Lys-Lys])LL; amide I:6-IV:C, I:9-II:C, II:6-III:C; N-terminus assumed)",>66,–,–
"CC(C)C[C@H](NC(=O)[C@H](CCCCNC(=O)[C@H](CCCCN)NC(=O)[C@H](CC(C)C)NC(=O)[C@H](CCCCNC(=O)[C@H](CCCCN)NC(=O)[C@H](CC(C)C)NC(=O)[C@H](CCCCNC(=O)[C@H](CCCCN)NC(=O)[C@@H](N)CC(C)C)NC(=O)[C@H](CCCCN)NC(=O)[C@@H](N)CC(C)C)NC(=O)[C@H](CCCCN)NC(=O)[C@H](CC(C)C)NC(=O)[C@H](CCCCNC(=O)[C@H](CCCCN)NC(=O)[C@@H](N)CC(C)C)NC(=O)[C@H](CCCCN)NC(=O)[C@@H](N)CC(C)C)NC(=O)[C@H](CCCCN)NC(=O)[C@H](CC(C)C)NC(=O)[C@H](CCCCNC(=O)[C@H](CCCCN)NC(=O)[C@H](CC(C)C)NC(=O)[C@H](CCCCNC(=O)[C@H](CCCCN)NC(=O)[C@@H](N)CC(C)C)NC(=O)[C@H](CCCCN)NC(=O)[C@@H](N)CC(C)C)NC(=O)[C@H](CCCCN)NC(=O)[C@H](CC(C)C)NC(=O)[C@H](CCCCNC(=O)[C@H](CCCCN)NC(=O)[C@@H](N)CC(C)C)NC(=O)[C@H](CCCCN)NC(=O)[C@@H](N)CC(C)C)C(=O)N[C@@H](CCCCN)C(N)=O [MSt-199, (LK)8(KLK)4(KLK)2(KLK)] (I: H-LKK([Lys-Leu])LKKLKKLK-NH2 / II: H-LKK([Lys-Leu])LKKLK / III: H-LKK([Lys-Leu])LK / IV: H-LKK([Lys-Leu])LK; amide I:6-IV:C, I:9-II:C, II:6-III:C)",–,9,3
